System: denuded oocytes (DO)
Assay: Oocyte assay, antagonistic testing, inhibition of FF-Mas induced maturation in denuded oocytes (DO assay)
Type: cell-based, mice (B6D2-F1, strain C57BL×DBA)
Conditions: FF-Mas 5 μM, compound tested 5 μM, control (FF-Mas alone) in brackets
Method: The meiosis inhibiting activity of the 22R-hydroxycholesta-8,14-diene derivatives of the invention is measured in an in vitro oocyte assay as the ability to inhibit the FF-Mas or 22S-hydroxy-FF-Mas induced maturation, in hypoxanthine media, in denuded oocytes (DO) or cumulus enclosed oocytes (CEO), respectively. Natural resumption of meiosis can be mimicked in vitro by addition of FF-Mas or other agonists to the culture medium containing hypoxanthine. The antagonistic activity of the compounds is measured as the ability to inhibit the FF-Mas or 22S-hydroxy-FF-Mas induced oocyte maturation in denuded oocytes or cumulus enclosed oocytes, respectively, in vitro. Ovaries are obtained from immature female mice (B6D2-F1, strain C57BL×DBA). At the age of 19, 20 or 21 days the mice are injected subcutaneously with a single dose of 20 IU follicle stimulating hormone (Humegon, Organon, The Netherlands) in saline. Forty-eight hours after follicle stimulating hormone injection mice are killed by cervical dislocation. The ovaries are removed, freed of extraneous tissue and placed in a multidish containing 0.5 ml preparation medium at 37° C. L-15 Leibovitz medium (Gibco, pH 7.3±0.1) supplemented with bovine serum albumin (3 mg·ml^−1), L-glutamine (0.23 mM), sodium pyruvate (2 mM) and hypoxanthine (4 mM) is used as preparation medium. The antral follicles of the ovaries are punctured under a dissecting microscope using two 27-gauge needles attached to two 1 ml syringes. […] At t=0 the number of oocytes with intact germinal vesicles (GV) or germinal vesicle break-down (GVBD) is counted under an inverted microscope with differential interference contrast equipment. […] At the end of the culture period the number of oocytes with GV or GVBD per group is counted. For statistical analysis the percentage germinal vesicle breakdown is calculated for each group in one block. These percentages are subjected to arcsin transformation, and differences between control and test compounds are analyzed by an ANOVA test for a randomized block design. […]

SMILES | % GVBD DO assay exp.
CC(C)CC[C@@H](O)[C@@H](C)[C@H]1CC=C2C3=C(CC[C@@]21C)[C@@]1(C)CC[C@H](O)C(C)(C)[C@@H]1CC3 [Example 1, (3β,5α,20S,22R)-4,4-Dimethylcholesta-8,14-diene-3,22-diol] | 0(55) %
CC(C)=CC[C@@H](O)[C@@H](C)[C@H]1CC=C2C3=C(CC[C@@]21C)[C@@]1(C)CC[C@H](O)C(C)(C)[C@@H]1CC3 [Example 2, (3β,5α,20S,22R)-4,4-Dimethylcholesta-8,14,24-triene-3,22-diol] | 0(90) %

Reference: US6518262B1, “22R-hydroxycholesta-8, 14-diene derivatives for the inhibition of meiosis” (Akzo Nobel N.V., priority 1999, dated 2003)
